{"source": "patent US7541020B2", "about": "“Aminoalkyl glucosaminide phosphate compounds and their use as adjuvants and immunoeffectors” (priority 1997, dated 2009)", "key": {"tetanus toxoid [1]": {"system": "tetanus toxoid", "details": "mouse, in vivo, sc"}, "influenza A/HK/68 [2]": {"system": "influenza A/HK/68", "details": "mouse, in vivo"}, "ovalbumin": {"system": "ovalbumin", "test": "Stimulation of antiovalbumin antibody production", "format": "in vivo, BDF1 female mice", "details": "50 μg AGP + 50 μg ovalbumin; second immunization day 21; bled 14 days after second injection", "experimental": "BDF1 female mice (8 per group) were immunized with 0.2 ml of emulsions containing 50 μg of the AGPs +50 μg of ovalbumin. A second immunization was administered 21 days post primary. Each mouse was bled 14 days after the second injection."}, "E.G7 (OVA) cells": {"system": "E.G7 (OVA) cells", "details": "s.c. 25 μg OVA in AGP preparation, spleen cells 21 days later"}, "influenza A/HK/68 [3]": {"system": "influenza A/HK/68", "format": "in vivo, ICR mice", "details": "Table 11"}, "IL-1β": {"system": "IL-1β", "test": "Cytokine induction in human whole blood ex vivo culture: IL-1β (ELISA)", "format": "cell-based", "details": "4 hr, Table 19", "experimental": "(§1) AGP compounds were solubilized in 10% EtOH-water and diluted to various concentrations. Fifty μl of each dilution were added to 450 μl of whole human blood. Controls were treated with culture media (RPMI). The reaction mixture was incubated at 37° C. for 4 hr with constant mixing on a rotator. Sterile PBS (1.5 ml) was added to the reaction mixture, the cells were centrifuged and the supernatents removed for cytokine testing. The concentration of TNF-α and IL-1β in each supernatent was determined using immunoassay ELISA kits from R&D Systems."}, "TNF-α": {"system": "TNF-α", "test": "Cytokine induction in human whole blood ex vivo culture: TNF-α (ELISA)", "format": "cell-based", "details": "4 hr, Table 19", "experimental": "as §1"}, "tetanus toxoid [4]": {"system": "tetanus toxoid", "design": "species or system BFD1 (C57B1/6X DBA/2) female mice", "details": "mouse, in vivo"}, "[5]": {"test": "Fever response in rabbits (pyrogenicity)", "format": "in vivo", "details": "10 ug/kg; cumulative rise ≥1.5 degree in three rabbits is considered pyrogenic", "experimental": "The AGP compounds were also evaluated for their tendency to induce a fever response in rabbits. Each compound was formulated in 10% (v/v) ethanol/water solution at 100 mg/ml, then diluted with D5W to the desired concentration. The material was injected at 3 ml/kg body weight into 3 rabbits. The rise in core temperature of the rabbits was recorded."}, "[6]": {"details": "25 μg AGP + 1 HAU FI-Flu in 0.2% TEoA, once, bled day 14"}}, "note": "“And” between values parts separate entries of the source, which are not always exact repeats. Equal values may be shown once. Read-outs that look alike come from different tables or passages of the source."}
{"molecule": "3-[(R)-3-Tetradecanoyloxytetradecanoylamino]propyl 2-Deoxy-4-O-phosphono-3-O-[(R)-3-tetradecanoyoxytetradecanoyl]-2-[(R)-3-tetradecanoyloxytetradecanoylamino])-β-D-glucopyranoside Triethylammonium Salt [B21]", "values": [{"measurement": "Anti-tetanus toxoid IgG1 T/C", "setting": "tetanus toxoid [1]", "result": 2.23}, {"measurement": "Anti-tetanus toxoid IgG1 Titer", "setting": "tetanus toxoid [1]", "result": "480,000"}, {"measurement": "Anti-tetanus toxoid IgG2a T/C", "setting": "tetanus toxoid [1]", "result": 5.83}, {"measurement": "Anti-tetanus toxoid IgG2a Titer", "setting": "tetanus toxoid [1]", "result": "29,600"}, {"measurement": "Anti-tetanus toxoid IgG2b T/C", "setting": "tetanus toxoid [1]", "result": 6.07}, {"measurement": "Anti-tetanus toxoid IgG2b Titer", "setting": "tetanus toxoid [1]", "result": "174,400"}, {"measurement": "Anti-tetanus toxoid IgM T/C", "setting": "tetanus toxoid [1]", "result": 5.50}, {"measurement": "Anti-tetanus toxoid IgM Titer", "setting": "tetanus toxoid [1]", "result": "8,800"}, {"measurement": "Anti-tetanus toxoid Total IgG T/C", "setting": "tetanus toxoid [1]", "result": 4.71}, {"measurement": "Anti-tetanus toxoid Total IgG Titer", "setting": "tetanus toxoid [1]", "result": "30,400"}, {"measurement": "Percent Survival", "setting": "influenza A/HK/68 [2]", "result": 40, "unit": "%"}, {"measurement": "Titer−1 IgG1", "setting": "influenza A/HK/68 [2]", "result": 800}, {"measurement": "Titer−1 IgG2a", "setting": "influenza A/HK/68 [2]", "result": 100}, {"measurement": "Titer−1 IgG2b", "setting": "influenza A/HK/68 [2]", "result": 1600}, {"measurement": "Titer−1 Total IgG", "setting": "influenza A/HK/68 [2]", "result": 6400}, {"measurement": "Anti-ovalbumin IgG1 T/C", "setting": "ovalbumin", "result": 0.6}, {"measurement": "Anti-ovalbumin IgG1 Titer", "setting": "ovalbumin", "result": 1000}, {"measurement": "Anti-ovalbumin IgG2a T/C", "setting": "ovalbumin", "result": 0.1}, {"measurement": "Anti-ovalbumin IgG2a Titer", "setting": "ovalbumin", "result": 25}, {"measurement": "Anti-ovalbumin IgG2b T/C", "setting": "ovalbumin", "result": 0.8}, {"measurement": "Anti-ovalbumin IgG2b Titer", "setting": "ovalbumin", "result": 200}, {"measurement": "Anti-ovalbumin IgM T/C", "setting": "ovalbumin", "result": 1.3}, {"measurement": "Anti-ovalbumin IgM Titer", "setting": "ovalbumin", "result": 250}, {"measurement": "Anti-ovalbumin Total Ig T/C", "setting": "ovalbumin", "result": 0.5}, {"measurement": "Anti-ovalbumin Total Ig Titer", "setting": "ovalbumin", "result": 113}]}
{"molecule": "CCCCCCCCCCCC(=O)O[C@H](CCCCCCCCCCC)CC(=O)N[C@H]1[C@H](OC[C@H](NC(=O)C[C@@H](CCCCCCCCCCC)OC(=O)CCCCCCCCCCC)C(=O)O)O[C@H](CO)[C@@H](OP(=O)(O)O)[C@@H]1OC(=O)C[C@@H](CCCCCCCCCCC)OC(=O)CCCCCCCCCCC.CCN(CC)CC", "note": "[B12, N-[(R)-3-Dodecanoyloxytetradecanoyl]-o-[2-Deoxy-4-O-phosphono-2-[(R)-3-dodecanoyloxytetradecanoylamino]-3-O-[(R)-3-dodecanoyloxytetradecanoyl]-β-D-glucopyranosyl]-L-serine Triethylammonium Salt]", "values": [{"measurement": "Anti-tetanus toxoid IgG2a T/C", "setting": "tetanus toxoid [1]", "result": 139.4}, {"measurement": "Anti-tetanus toxoid IgG2a titer", "setting": "tetanus toxoid [1]", "result": 2370}, {"measurement": "Anti-tetanus toxoid IgG2b T/C", "setting": "tetanus toxoid [1]", "result": 149}, {"measurement": "Anti-tetanus toxoid IgG2b titer", "setting": "tetanus toxoid [1]", "result": 9840}, {"measurement": "Anti-tetanus toxoid IgM T/C", "setting": "tetanus toxoid [1]", "result": 3.1}, {"measurement": "Anti-tetanus toxoid IgM titer", "setting": "tetanus toxoid [1]", "result": 4800}, {"measurement": "% Cytotoxicity", "setting": "E.G7 (OVA) cells; E:T 12.5:1", "result": 4, "unit": "%"}, {"measurement": "% Cytotoxicity", "setting": "E.G7 (OVA) cells; E:T 25:1", "result": 7, "unit": "%"}, {"measurement": "% Cytotoxicity", "setting": "E.G7 (OVA) cells; E:T 50:1", "result": 13, "unit": "%"}, {"measurement": "Titer^−1 IgG1", "setting": "influenza A/HK/68 [3]; [6]", "result": 200}, {"measurement": "Titer^−1 IgG2a", "setting": "influenza A/HK/68 [3]; [6]", "result": 100}, {"measurement": "Titer^−1 IgG2b", "setting": "influenza A/HK/68 [3]; [6]", "result": 200}, {"measurement": "Titer^−1 Total IgG", "setting": "influenza A/HK/68 [3]; [6]", "result": 200}, {"measurement": "Percent Survival", "setting": "influenza A/HK/68 [3]; […], mortality 21 days", "result": 0, "unit": "%"}, {"measurement": "IL-1β", "setting": "IL-1β; Dosage 1000 ng/ml", "result": 175, "unit": "pg/mL"}, {"measurement": "IL-1β", "setting": "IL-1β; Dosage 5000 ng/ml", "result": 153, "unit": "pg/mL"}, {"measurement": "IL-1β", "setting": "IL-1β; Dosage 10,000 ng/ml", "result": 135, "unit": "pg/mL"}, {"measurement": "TNF-α", "setting": "TNF-α; Dosage 1000 ng/ml", "result": 863, "unit": "pg/mL"}, {"measurement": "TNF-α", "setting": "TNF-α; Dosage 5000 ng/ml", "result": 957, "unit": "pg/mL"}, {"measurement": "TNF-α", "setting": "TNF-α; Dosage 10,000 ng/ml", "result": 1017, "unit": "pg/mL"}, {"measurement": "IgG1 T/C", "setting": "tetanus toxoid [4]", "result": "90.08 and 141.22 and 145.21 and 81.12 and 84.11"}, {"measurement": "IgG1 Titer", "setting": "tetanus toxoid [4]", "result": "165,486 and 259,429 and 266,743 and 149,029 and 154,514"}, {"measurement": "Total Ig T/C", "setting": "tetanus toxoid [4]", "result": "326.02 and 368.55 and 403.98 and 248.06 and 489.92"}, {"measurement": "Total Ig Titer", "setting": "tetanus toxoid [4]", "result": "42,057 and 47,543 and 52,114 and 32,000 and 63,200"}]}
{"molecule": "CCCCCCCCCCCCCC(=O)O[C@H](CCCCCCCCCCC)CC(=O)N[C@H]1[C@H](OCCN(CC(=O)O)C(=O)C[C@@H](CCCCCCCCCCC)OC(=O)CCCCCCCCCCCCC)O[C@H](CO)[C@@H](OP(=O)(O)O)[C@@H]1OC(=O)C[C@@H](CCCCCCCCCCC)OC(=O)CCCCCCCCCCCCC.CCN(CC)CC", "note": "[B27, N-(Carboxymethyl)-N-[(R)-3-tetradecanoyloxytetradecanoyl]-2-aminoethyl 2-Deoxy-4-O-phophono-2-[(R)-3-tetradecanoyloxytetradecanoylamino]-3-O-[(R)-3-tetradecanoyloxytetradecanoyl]-β-d-glucopyranoside Triethylammonium Salt]", "values": [{"measurement": "% Cytotoxicity", "setting": "E.G7 (OVA) cells; E:T 12.5:1", "result": 5, "unit": "%"}, {"measurement": "% Cytotoxicity", "setting": "E.G7 (OVA) cells; E:T 25:1", "result": 9, "unit": "%"}, {"measurement": "% Cytotoxicity", "setting": "E.G7 (OVA) cells; E:T 50:1", "result": 17, "unit": "%"}, {"measurement": "PYROGENICITY Total Rise ° C., 3 rabbits", "setting": "[5]", "result": 3.9, "unit": "°C"}, {"measurement": "Anti-ovalbumin IgG1 T/C", "setting": "ovalbumin", "result": 0.8}, {"measurement": "Anti-ovalbumin IgG1 Titer", "setting": "ovalbumin", "result": 1275}, {"measurement": "Anti-ovalbumin IgG2a T/C", "setting": "ovalbumin", "result": 0.1}, {"measurement": "Anti-ovalbumin IgG2a Titer", "setting": "ovalbumin", "result": 38}, {"measurement": "Anti-ovalbumin IgG2b T/C", "setting": "ovalbumin", "result": 0.5}, {"measurement": "Anti-ovalbumin IgG2b Titer", "setting": "ovalbumin", "result": 113}, {"measurement": "Anti-ovalbumin IgM T/C", "setting": "ovalbumin", "result": 1.6}, {"measurement": "Anti-ovalbumin IgM Titer", "setting": "ovalbumin", "result": 300}, {"measurement": "Anti-ovalbumin Total Ig T/C", "setting": "ovalbumin", "result": 0.6}, {"measurement": "Anti-ovalbumin Total Ig Titer", "setting": "ovalbumin", "result": 138}, {"measurement": "IgG1 T/C Ratio", "setting": "tetanus toxoid [4]", "result": 1.6}, {"measurement": "IgG1 Titer", "setting": "tetanus toxoid [4]", "result": "10,400"}, {"measurement": "IgG2a T/C Ratio", "setting": "tetanus toxoid [4]", "result": 12.0}, {"measurement": "IgG2a Titer", "setting": "tetanus toxoid [4]", "result": 900}, {"measurement": "IgG2b T/C Ratio", "setting": "tetanus toxoid [4]", "result": 11.6}, {"measurement": "IgG2b Titer", "setting": "tetanus toxoid [4]", "result": "9,000"}, {"measurement": "IgM T/C Ratio", "setting": "tetanus toxoid [4]", "result": 4.0}, {"measurement": "IgM Titer", "setting": "tetanus toxoid [4]", "result": "11,200"}, {"measurement": "Total Ig T/C Ratio", "setting": "tetanus toxoid [4]", "result": 3.2}, {"measurement": "Total Ig Titer", "setting": "tetanus toxoid [4]", "result": "6,800"}]}
